In patent publication US20210403924A1, “Method for selecting cells based on CRISPR/Cas-mediated integration of a detectable tag to a target protein” (Hoffmann-La Roche Inc., priority 2018, published 2021):

Key:
Assay type in all cases: cell-based
human TUBA1B locus [1] = assay: Knock-in Strategy V2: eGFP knock-in at TUBA1B, puromycin and hygromycin B double selection, FACS screen of clones for FITC signal; details: for Efficiency (potentially positive clones / clones examined) / Number of potential clones (total number of examined clones in parentheses): HEK293A
Method: In the Knock-in Strategy V2, a Cas9-encoding plasmid comprising a puromycin-resistance cassette was co-transfected with a circular donor plasmid with a hygromycin B-resistance cassette as well as specific, synthetic crRNA and tracrRNA. The selection was carried out as double selection with hygromycin B for the donor plasmid and puromycin for the Cas9-encoding plasmid.
In the Knock-in Strategy V2, the cells were transfected with the identical crRNAs and tracrRNAs, as well as the Cas9-PuroR plasmid as in the Knock-in Strategy V1. Each of the three crRNAs (SEQ ID NO: 07-09) was combined with the linearized or circular donor plasmid with the hygromycin B-resistance cassette. Selection was performed via puromycin for the Cas9 plasmid and hygromycin B for the donor plasmid for a total of 10 days. Four 96-well plates with FITC-positive, viable single cells were subsequently deposited from each transfection. Differences in the FITC signal between the wild-type and the transfected cells were evident in the enlarged view of the histograms. The proportion of FITC-positive cells was between 0.4% and 3.8%. […] The most intense signal was found in the sample of crRNA3 and the circular donor plasmid (FIG. 13).
After a three-week incubation in the incubator, the growth rate of the deposited single cells was determined microscopically. It averaged 34.3%. All grown clones were analyzed by FACS for their FITC signal. An eGFP expression in the cells leads to the detection of an increased FITC signal compared to the wild-type, i.e. non-transfected cells. A total of 118 potentially positive clones were identified from a total of 496 analyzed clones. This corresponded to an overall efficiency of […]. The proportion of potentially positive clones among the samples containing the circular donor plasmid was 33.3%, more than twice as high as that for the linearized donor plasmid at 15.3% (Table 4).
(§1) Using FACS sorting, the transfected and partially already selected cells were sorted. These were harvested, washed with PBS and adjusted to a cell number of 1×10^6 cells/mL in FACS buffer. After the desired cell population had been gated and all settings made on the device for sorting, the selected cells could be […]. The single cell deposit was performed in 96-well format. The plates were stored with 200 μL of medium per well at 37° C. in order to temper the medium and to keep the cell's stress as low as possible. Each knock-in trial involved deposition in between 20 and 24 plates. The cells then needed about 3 weeks in the incubator at 37° C. and 5% CO2 for growth. All plates were analyzed microscopically to determine the growth rate and the clones were then examined for eGFP expression.
(§2) The methodology was used primarily for the screening of the generated clones. For this purpose, the medium was completely removed from the 96-well plates, the cells were detached with 25 μL Accutase and resuspended with 40 μL FACS buffer. 40 μL of cell suspension was transferred to a 96-well conical-bottomed plate and measured directly on the FACS Canto II from BD. The eGFP signals of the clones were always referenced with HEK293A wild-type cells. The evaluation was done with the FlowJo v10.0.7 software. Potentially positive clones with a distinct eGFP signal were expanded and further characterized.

human TUBA1B locus [2] = assay: Knock-in Strategy V1: eGFP knock-in at TUBA1B, puromycin single selection, FACS screen of clones for FITC signal; details: HEK293A
Method: In the Knock-in Strategy V1, a Cas9-encoding plasmid comprising a puromycin-resistance cassette was co-transfected with a circular donor plasmid without a selection marker as well as specific synthetic crRNA and tracrRNA. The selection was carried out exclusively with puromycin on the Cas9-encoding plasmid.
In the first knock-in strategy, the cells were transfected with the Cas9-PuroR plasmid, the circular donor plasmid, as well as specific, synthetic crRNA and tracrRNA. The selection was made exclusively on the Cas9 plasmid with puromycin for 10 days. Thereafter, single cells of the cells transfected with crRNA1 (SEQ ID NO: 07) or crRNA2 (SEQ ID NO: 08), respectively, were deposited in ten 96-well plates. […] The increased FITC signal can be attributed to the expression of eGFP, which is only possible if the eGFP sequence from the donor plasmid has been introduced in-frame into a translated region in the genome, since the start codon is missing.
The growth rate of the deposited single cells was determined microscopically after 3 weeks, and totaled 63%. Subsequently, the cells by FACS were analyzed for their FITC signal (results in Table 1).
as §1, §2

human TUBA1B locus [3] = assay: Knock-in Strategy V3: eGFP knock-in at TUBA1B, CD4 pool sorting and hygromycin B selection, FACS screen of clones for FITC signal; details: HEK293A
Method: In the Knock-in Strategy V3, the Cas9 nuclease and the sgRNA were combined on a single plasmid. This additionally contained a CD4 marker for selection. The donor plasmid corresponded to that of the strategy V2. Thus, the double selection was carried out via hygromycin B for the donor plasmid, as well as for CD4 for the nuclease/gRNA plasmid.
In the Knock-in Strategy V3, the cells were transfected with the circular or linear donor plasmid and a pCas-Guide EF1α-CD4 plasmid. This plasmid, referred to as “all-in-one”, encodes the Cas9 nuclease, a gRNA and CD4. The selection was made in this strategy via hygromycin B for the donor plasmid, and with CD4 for the Cas9 nuclease and the gRNA. Three different pCas-Guide-EF1α-CD4 plasmids were used, each coding for one of the three gRNAs. […] About 48 hours after transfection, the cells were stained with an APC-conjugated anti-CD4 antibody. HEK293A wild-type cells natively express no CD4, so these cells defined the APC negative gate. Only cells that had taken up the pCas-Guide-EF1α-CD4 plasmid expressed CD4 on the cell surface, which was detectable by FACS via the elevated APC signal after staining with the antibody. […] The transfected cells are between 63% and 86% in the APC positive gate. Comparing the samples with linear and circular donor plasmid from each gRNA, it was possible to see that proportionally more APC and, thus, CD4 positive cells were detected in the samples with the circular donor plasmid. From each transfection approximately 5×10^5 CD4 positive cells were deposited as a cell pool using FACS sorting (FIG. 16).
The cells were cultured after pool sorting for 24 h in 6-well plates. Next, selection with hygromycin B was performed for the donor plasmid for 10 days. Subsequently, single cells from each transfection were deposited in four 96-well plates. Differences in the FITC signal between the wild-type and the transfected samples were evident in the enlarged view of the histograms. […] Gating on FITC-positive cells was therefore almost impossible. To the extent possible, viable single cells were deposited from the FITC-positive gate (FIG. 17).
Three weeks after single cell deposition, the first screening of the clones for the FITC signal followed and, thus, the presence of eGFP in the FACS. Previously, an average growth rate of 43% had been determined microscopically. A total of 952 clones were screened, of which 33 were identified as potentially positive clones. This corresponded to an efficiency of 3.4%. No clones could be identified in the three samples 1L, 3L and 3Z. Again, it was possible to see that the circular donor plasmid samples yielded more potentially positive clones than did samples with the linearized donor plasmid (Table 7).
In the knock-in V3, the pCas9-Guide-EF1α-CD4 plasmid contains a CD4 cassette as a selection marker. To select the CD4-positive cells, the cells were harvested 48 hours after transfection and washed twice with PBS. Next, the cells were resuspended in 250 μL FACS buffer and 5 μL α-CD4-Alexa 647 antibody added. This corresponded to a final antibody concentration of 1.5 μg/mL. After one hour of incubation on ice in the dark, the cells were washed three times with FACS buffer and then measured. For pool sorting, approximately 1.5×10^5 CD4-positive cells per sample were sorted into a 15 mL Falcon in which 5 mL of complete medium had already been placed. Subsequently, the cells were centrifuged for 5 min. at 300 g, resuspended in 3 mL fresh complete medium and seeded into a 6-well plate. After 24 hours the cells were again adherent and could be selected with hygromycin B on the donor plasmid. Once the selected cells had matured, the single-cell deposition in the 96-well format was again carried out.
The methodology was used primarily for the screening of the generated clones. For this purpose, the medium was completely removed from the 96-well plates, the cells were detached with 25 μL Accutase and resuspended with 40 μL FACS buffer. […]

[4] = Plates from gate P3, circular donor plasmid
[5] = Plates from gate P4 (FITC-positive), circular donor plasmid

| Substance | Efficiency (potentially positive clones / clones examined) (human TUBA1B locus [1]; Circular donor plasmid) [%] | Number of potential clones (total number of examined clones in parentheses) (human TUBA1B locus [1]; Circular donor plasmid) | Efficiency (potentially positive clones / clones examined) (human TUBA1B locus [1]; Linear donor plasmid) [%] | Number of potential clones (total number of examined clones in parentheses) (human TUBA1B locus [1]; Linear donor plasmid) | Efficiency (potentially positive clones / clones examined) (human TUBA1B locus [2]; [4]) [%] | Number of potentially positive clones (total number of examined clones in parentheses) (human TUBA1B locus [2]; [4]) | Efficiency (potentially positive clones / clones examined) (human TUBA1B locus [2]; [5]) [%] | Number of potentially positive clones (total number of examined clones in parentheses) (human TUBA1B locus [2]; [5]) | cells of the clones in the FITC-positive range (human TUBA1B locus [1]; clones with circular donor plasmid, after long-term cultivation, FACS) | Efficiency (potential clones / clones examined) (human TUBA1B locus [3]; Circular donor plasmid) [%] | Number of potential clones (total number of examined clones in parentheses) (human TUBA1B locus [3]; Circular donor plasmid) | Efficiency (potential clones / clones examined) (human TUBA1B locus [3]; Linear donor plasmid) [%] | Number of potential clones (total number of examined clones in parentheses) (human TUBA1B locus [3]; Linear donor plasmid) |
| --- | --- | --- | --- | --- | --- | --- | --- | --- | --- | --- | --- | --- | --- |
| crRNA1: TUBA1B-specific synthetic crRNA (Dharmacon), SEQ ID NO: 07, GAGTGCATCTCCATCCACGT (synthetic crRNA bought from a supplier, chemistry not given here) | 53.3 | 40 (75) | 7.2 | 7 (97) | 0.44 | 2 (452) | 16.1 | 11 (68) |  |  |  |  |  |
| crRNA2: TUBA1B-specific synthetic crRNA (Dharmacon), SEQ ID NO: 08, GGCCAGGCTGGTGTCCAGAT (synthetic crRNA bought from a supplier, chemistry not given here) | 1 | 1 (98) | 0 | 0 (81) | 0.25 | 1 (399) | 14.7 | 9 (64) |  |  |  |  |  |
| crRNA3: TUBA1B-specific synthetic crRNA (Dharmacon), SEQ ID NO: 09, GAGCTCTACTGCCTGGAACA (synthetic crRNA bought from a supplier, chemistry not given here) | 60.7 | 37 (61) | 39.3 | 33 (84) |  |  |  |  | over 87% |  |  |  |  |
| gRNA1: TUBA1B-specific gRNA encoded on the pCas-Guide-EF1α-CD4 all-in-one plasmid, oligos SEQ ID NO: 01 and 02 (DNA 1 GATCGGAGTGCATCTCCATCCACGTG; DNA 2 AAAACACGTGGATGGAGATGCACTCC; the letters are possibly those of the target site) |  |  |  |  |  |  |  |  |  | 19.4 | 12 (62) | 0 | 0 (195) |
| gRNA2: TUBA1B-specific gRNA encoded on the pCas-Guide-EF1α-CD4 all-in-one plasmid, oligos SEQ ID NO: 03 and 04 (DNA 1 GATCGGGCCAGGCTGGTGTCCAGATG; DNA 2 AAAACATCTGGACACCAGCCTGGCCC; the letters are possibly those of the target site) |  |  |  |  |  |  |  |  |  | 6.5 | 14 (214) | 3.6 | 7 (195) |
| gRNA3: TUBA1B-specific gRNA encoded on the pCas-Guide-EF1α-CD4 all-in-one plasmid, oligos SEQ ID NO: 05 and 06 (DNA 1 GATCGGAGCTCTACTGCCTGGAACAG; DNA 2 AAAACTGTTCCAGGCAGTAGAGCTCC; the letters are possibly those of the target site) |  |  |  |  |  |  |  |  |  | 0 | 0 (105) | 0 | 0 (212) |
